Source: US12084472B2 (Ardelyx, Inc., priority 2015, dated 2024)

What follows are molecules tested against T1, human TGR5 (Homo sapiens, UniProt Q8TDU6) (assay: Cell-based TGR5 assay (cAMP generation, HTRF)). Settings: HEK293 cells stably transfected with human TGR5; cAMP by HTRF; 30 minutes at 37° C.; read-out: pEC50 Human TGR5 (converted).
T1 construct: expressed in transfected cells; host or cells: HEK293
T1 sequence (Q8TDU6 1-330): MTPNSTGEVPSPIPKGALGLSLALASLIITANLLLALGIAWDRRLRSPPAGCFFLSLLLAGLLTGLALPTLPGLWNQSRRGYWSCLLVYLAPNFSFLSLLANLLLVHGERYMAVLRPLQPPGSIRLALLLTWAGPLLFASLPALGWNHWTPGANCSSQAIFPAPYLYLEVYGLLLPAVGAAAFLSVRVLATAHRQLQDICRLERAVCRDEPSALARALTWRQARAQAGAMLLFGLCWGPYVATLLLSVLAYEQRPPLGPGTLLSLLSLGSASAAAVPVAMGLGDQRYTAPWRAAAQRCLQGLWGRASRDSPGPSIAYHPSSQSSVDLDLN
Procedure, shortened: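 First, compounds in 3-fold serial dilution were placed in HBSS with 10 mM HEPES pH 7.4 and 0.5 mM IBMX. Next, human TGR5-expressing HEK293 cells were added and incubated 30 min at 37° C. Finally, cAMP was detected by HTRF and pEC50 derived by logistic fitting.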

| EC50 [nM] | SMILES |
| --- | --- |
| < 100 | CS(=O)(=O)NCCN(CCCSc1ccc(Cl)c(CNC2(c3cnccc3-c3ccccc3OC3CC3)CC2)c1)C(=O)[C@@H](O)[C@@H](O)[C@H](O)[C@@H](O)CO [Compound I-585, (2S,3S,4R,5S)-N-[3-({4-chloro-3-[({1-[4-(2-cyclopropoxyphenyl)pyridin-3-yl]cyclopropyl}amino)methyl]phenyl}sulfanyl)propyl]-2,3,4,5,6-pentahydroxy-N-(2-methanesulfonamidoethyl) hexanamide] |
| 126 to 1000 | CC(=O)NCCN(CCCSc1ccc(Cl)c(CNC2(c3cnccc3-c3ccccc3OC3CC3)CC2)c1)C(=O)[C@@H](O)[C@@H](O)[C@H](O)[C@@H](O)CO [Compound I-586, (2S,3S,4R,5S)-N-[3-({4-chloro-3-[({1-[4-(2-cyclopropoxyphenyl)pyridin-3-yl]cyclopropyl}amino)methyl]phenyl}sulfanyl)propyl]-N-(2-acetamidoethyl)-2,3,4,5,6-pentahydroxyhexanamide] |
| 126 to 1000 | CCOC(=O)NCCN(CCCSc1ccc(Cl)c(CNC2(c3cnccc3-c3ccccc3OC3CC3)CC2)c1)C(=O)[C@@H](O)[C@@H](O)[C@H](O)[C@@H](O)CO [Compound I-587, ethyl N-{2-[(2S,3S,4R,5S)-N-[3-({4-chloro-3-[({1-[4-(2-cyclopropoxyphenyl)pyridin-3-yl]cyclopropyl}amino)methyl]phenyl}sulfanyl)propyl]-2,3,4,5,6-pentahydroxyhexanamido]ethyl}carbamate] |
| < 100 | CS(=O)(=O)NCCCN(CCCSc1ccc(Cl)c(CNC2(c3cnccc3-c3ccccc3OC3CC3)CC2)c1)C(=O)[C@@H](O)[C@@H](O)[C@H](O)[C@@H](O)CO [Compound I-588, (2S,3S,4R,5S)-N-[3-({4-chloro-3-[({1-[4-(2-cyclopropoxyphenyl)pyridin-3-yl]cyclopropyl}amino)methyl]phenyl}sulfanyl)propyl]-2,3,4,5,6-pentahydroxy-N-(3-methanesulfonamidopropyl) hexanamide] |
| 126 to 1000 | CC(=O)NCCCN(CCCSc1ccc(Cl)c(CNC2(c3cnccc3-c3ccccc3OC3CC3)CC2)c1)C(=O)[C@@H](O)[C@@H](O)[C@H](O)[C@@H](O)CO [Compound I-589, (2S,3S,4R,5S)-N-[3-({4-chloro-3-[({1-[4-(2-cyclopropoxyphenyl)pyridin-3-yl]cyclopropyl}amino)methyl]phenyl}sulfanyl)propyl]-N-(3-acetamidopropyl)-2,3,4,5,6-pentahydroxyhexanamide] |
| < 100 | CCOC(=O)NCCCN(CCCSc1ccc(Cl)c(CNC2(c3cnccc3-c3ccccc3OC3CC3)CC2)c1)C(=O)[C@@H](O)[C@@H](O)[C@H](O)[C@@H](O)CO [Compound I-590, ethyl N-{3-[(2S,3S,4R,5S)-N-[3-({4-chloro-3-[({1-[4-(2-cyclopropoxyphenyl)pyridin-3-yl]cyclopropyl}amino)methyl]phenyl}sulfanyl)propyl]-2,3,4,5,6-pentahydroxyhexanamido]propyl} carbamate] |
| 126 to 1000 | CS(=O)(=O)NCCCN(CCCCSc1ccc(Cl)c(CNC2(c3cnccc3-c3ccccc3OC3CC3)CC2)c1)C(=O)[C@@H](O)[C@@H](O)[C@H](O)[C@@H](O)CO [Compound I-591, (2S,3S,4R,5S)-N-[4-({4-chloro-3-[({1-[4-(2-cyclopropoxyphenyl)pyridin-3-yl]cyclopropyl}amino)methyl]phenyl}sulfanyl)butyl]-2,3,4,5,6-pentahydroxy-N-(3-methanesulfonamidopropyl) hexanamide] |
| 126 to 1000 | CS(=O)(=O)NCCCN(CCCSc1ccc(Cl)c(COC2(c3cnccc3-c3ccccc3OC3CC3)CC2)c1)C(=O)[C@@H](O)[C@@H](O)[C@H](O)[C@@H](O)CO [Compound I-592, (2S,3S,4R,5S)-N-(3-{[4-chloro-3-({1-[4-(2-cyclopropoxyphenyl)pyridin-3-yl]cyclopropoxy}methyl)phenyl]sulfanyl}propyl)-2,3,4,5,6-pentahydroxy-N-(3-methanesulfonamidopropyl) hexanamide] |
| < 100 | CS(=O)(=O)NCCN(CCCSc1ccc(Cl)c(COC2(c3cnccc3-c3ccccc3OC3CC3)CC2)c1)C(=O)[C@@H](O)[C@@H](O)[C@H](O)[C@@H](O)CO [Compound I-593, (2S,3S,4R,5S)-N-(3-{[4-chloro-3-({1-[4-(2-cyclopropoxyphenyl)pyridin-3-yl]cyclopropoxy}methyl)phenyl]sulfanyl}propyl)-2,3,4,5,6-pentahydroxy-N-(2-methanesulfonamidoethyl) hexanamide] |
| < 100 | CC(=O)NCCCN(CCCSc1ccc(Cl)c(COC2(c3cnccc3-c3ccccc3OC3CC3)CC2)c1)C(=O)[C@@H](O)[C@@H](O)[C@H](O)[C@@H](O)CO [Compound I-594, (2S,3S,4R,5S)-N-(3-{[4-chloro-3-({1-[4-(2-cyclopropoxyphenyl)pyridin-3-yl]cyclopropoxy}methyl)phenyl]sulfanyl}propyl)-N-(3-acetamidopropyl)-2,3,4,5,6-pentahydroxyhexanamide] |
| 126 to 1000 | CC(=O)NCCN(CCCSc1ccc(Cl)c(COC2(c3cnccc3-c3ccccc3OC3CC3)CC2)c1)C(=O)[C@@H](O)[C@@H](O)[C@H](O)[C@@H](O)CO [Compound I-595, (2S,3S,4R,5S)-N-(3-{[4-chloro-3-({1-[4-(2-cyclopropoxyphenyl)pyridin-3-yl]cyclopropoxy}methyl)phenyl]sulfanyl}propyl)-N-(2-acetamidoethyl)-2,3,4,5,6-pentahydroxyhexanamide] |
| 126 to 1000 | CCOC(=O)NCCCN(CCCSc1ccc(Cl)c(COC2(c3cnccc3-c3ccccc3OC3CC3)CC2)c1)C(=O)[C@@H](O)[C@@H](O)[C@H](O)[C@@H](O)CO [Compound I-596, ethyl N-{3-[(2S,3S,4R,5S)-N-(3-{[4-chloro-3-({1-[4-(2-cyclopropoxyphenyl)pyridin-3-yl]cyclopropoxy}methyl)phenyl]sulfanyl}propyl)-2,3,4,5,6-pentahydroxyhexanamido]propyl}carbamate] |
| 126 to 1000 | CCOC(=O)NCCN(CCCSc1ccc(Cl)c(COC2(c3cnccc3-c3ccccc3OC3CC3)CC2)c1)C(=O)[C@@H](O)[C@@H](O)[C@H](O)[C@@H](O)CO [Compound I-597, ethyl N-{2-[(2S,3S,4R,5S)-N-(3-{[4-chloro-3-({1-[4-(2-cyclopropoxyphenyl)pyridin-3-yl]cyclopropoxy}methyl)phenyl]sulfanyl}propyl)-2,3,4,5,6-pentahydroxyhexanamido]ethyl}carbamate] |
| < 100 | O=C([C@@H](O)[C@@H](O)[C@H](O)[C@@H](O)CO)N(CCCCCSc1ccc(Cl)c(CNC2(c3cnccc3-c3ccccc3OC3CC3)CC2)c1)CCOCCO [Compound I-598, (2S,3S,4R,5S)-N-[5-({4-chloro-3-[({1-[4-(2-cyclopropoxyphenyl)pyridin-3-yl]cyclopropyl}amino)methyl]phenyl}sulfanyl)pentyl]-2,3,4,5,6-pentahydroxy-N-[2-(2-hydroxyethoxy)ethyl]hexanamide] |
| < 100 | CS(=O)(=O)NCCCCN(CCCSc1ccc(Cl)c(CNC2(c3cnccc3-c3ccccc3OC3CC3)CC2)c1)C(=O)[C@@H](O)[C@@H](O)[C@H](O)[C@@H](O)CO [Compound I-599, (2S,3S,4R,5S)-N-[3-({4-chloro-3-[({1-[4-(2-cyclopropoxyphenyl)pyridin-3-yl]cyclopropyl}amino)methyl]phenyl}sulfanyl)propyl]-2,3,4,5,6-pentahydroxy-N-(4-methanesulfonamidobutyl) hexanamide] |
